Key:
Format in all cases: biochemical
mTOR = mTOR (Homo sapiens, UniProt P42345); assay: mTOR enzyme assay (DELFIA, His6-S6K phosphorylation); set-up: FLAG; conditions: 100 μM ATP, 1.25 μM His6-S6K
PI3K-α = PI3K-α (Homo sapiens, UniProt P42336); assay: PI3K-alpha fluorescence polarization assay; conditions: 20 μM PIP2, 25 μM ATP
Procedure: (§1) The reaction buffer was 20 mM HEPES pH7.5, 2 mM MgCl2, 0.05% CHAPS, and 0.01% βME (added fresh). The substrate solution was 40 μM PIP2 (diC8, Echelon, Salt Lake City Utah cat #P-4508, 1 mM in water) and 50 μM ATP in the reaction buffer. Nunc 384-well black polypropylene fluorescent plates were used for PI3K assays. The assay is run by putting 9.5 μl of freshly diluted enzyme in the reaction buffer per well, adding 0.5 μl of diluted drug or DMSO, and mixing. Then 10 μl of the substrate solution is added to each well to start the reaction. A final concentration of 20 μM PIP2 and 25 μM ATP in the reaction was used. Reactions were allowed to proceed for 30-60 minutes at room temperature. After 30-60 minutes, 20 μl of a solution of 10 nM TAMRA detector (Red detector probe-Echelon) and 2.5 uM of GST-murineGRP (1.5 mg/ml in 17% glycerol) was added per well to stop the reaction. The resulting solution was mixed well and allowed to stand for 90-110 minutes before reading plate. Assay Plates were read on Perkin-Elmer Envision plate readers with appropriate filters for Tamra [BODIPY-TMRI(1,3,4,5)P4]. Data obtained were used to calculate enzymatic activity and enzyme inhibition by inhibitor compounds. It is important to keep Red probe solutions dark. This procedure is adapted from Echelon Biosciences Inc procedure for their PI3-Kinase fluorescence polarization activity Assay kit Product number K-1100.

PI3K-γ = PI3K-γ (Homo sapiens, UniProt P48736); assay: PI3K-gamma fluorescence polarization assay; conditions: 20 μM PIP2, 25 μM ATP
Chain of PI3K-γ (P48736 whole entry, species assumed): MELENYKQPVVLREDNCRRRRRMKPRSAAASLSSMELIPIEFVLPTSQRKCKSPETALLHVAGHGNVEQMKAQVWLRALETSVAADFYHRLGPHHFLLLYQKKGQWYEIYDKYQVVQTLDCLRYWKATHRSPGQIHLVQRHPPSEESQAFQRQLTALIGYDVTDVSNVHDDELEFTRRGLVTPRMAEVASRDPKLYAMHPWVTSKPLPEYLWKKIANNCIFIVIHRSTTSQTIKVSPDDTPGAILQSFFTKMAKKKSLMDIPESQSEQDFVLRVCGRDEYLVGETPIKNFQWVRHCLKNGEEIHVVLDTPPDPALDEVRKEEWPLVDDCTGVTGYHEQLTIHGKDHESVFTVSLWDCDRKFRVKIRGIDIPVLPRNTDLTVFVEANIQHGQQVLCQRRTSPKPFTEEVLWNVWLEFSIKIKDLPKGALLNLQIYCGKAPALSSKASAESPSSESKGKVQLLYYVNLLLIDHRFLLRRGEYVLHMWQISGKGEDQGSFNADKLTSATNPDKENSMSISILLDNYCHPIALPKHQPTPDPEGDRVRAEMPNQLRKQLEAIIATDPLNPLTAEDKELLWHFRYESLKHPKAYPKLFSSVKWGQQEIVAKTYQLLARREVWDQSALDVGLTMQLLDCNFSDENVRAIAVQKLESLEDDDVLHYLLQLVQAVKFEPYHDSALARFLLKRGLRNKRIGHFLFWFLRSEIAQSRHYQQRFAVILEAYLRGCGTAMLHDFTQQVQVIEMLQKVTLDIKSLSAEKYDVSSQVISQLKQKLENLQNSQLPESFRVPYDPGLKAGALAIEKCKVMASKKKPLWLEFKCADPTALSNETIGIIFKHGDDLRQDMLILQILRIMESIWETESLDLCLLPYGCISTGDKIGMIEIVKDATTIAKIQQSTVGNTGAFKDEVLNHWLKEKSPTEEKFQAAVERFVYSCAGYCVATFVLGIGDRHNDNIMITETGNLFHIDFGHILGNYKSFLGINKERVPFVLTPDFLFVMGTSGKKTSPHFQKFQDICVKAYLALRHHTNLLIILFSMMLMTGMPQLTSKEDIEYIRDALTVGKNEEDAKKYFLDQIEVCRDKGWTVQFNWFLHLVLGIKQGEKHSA
Procedure: as §1

Chain of PI3K-α (P42336 whole entry, species assumed): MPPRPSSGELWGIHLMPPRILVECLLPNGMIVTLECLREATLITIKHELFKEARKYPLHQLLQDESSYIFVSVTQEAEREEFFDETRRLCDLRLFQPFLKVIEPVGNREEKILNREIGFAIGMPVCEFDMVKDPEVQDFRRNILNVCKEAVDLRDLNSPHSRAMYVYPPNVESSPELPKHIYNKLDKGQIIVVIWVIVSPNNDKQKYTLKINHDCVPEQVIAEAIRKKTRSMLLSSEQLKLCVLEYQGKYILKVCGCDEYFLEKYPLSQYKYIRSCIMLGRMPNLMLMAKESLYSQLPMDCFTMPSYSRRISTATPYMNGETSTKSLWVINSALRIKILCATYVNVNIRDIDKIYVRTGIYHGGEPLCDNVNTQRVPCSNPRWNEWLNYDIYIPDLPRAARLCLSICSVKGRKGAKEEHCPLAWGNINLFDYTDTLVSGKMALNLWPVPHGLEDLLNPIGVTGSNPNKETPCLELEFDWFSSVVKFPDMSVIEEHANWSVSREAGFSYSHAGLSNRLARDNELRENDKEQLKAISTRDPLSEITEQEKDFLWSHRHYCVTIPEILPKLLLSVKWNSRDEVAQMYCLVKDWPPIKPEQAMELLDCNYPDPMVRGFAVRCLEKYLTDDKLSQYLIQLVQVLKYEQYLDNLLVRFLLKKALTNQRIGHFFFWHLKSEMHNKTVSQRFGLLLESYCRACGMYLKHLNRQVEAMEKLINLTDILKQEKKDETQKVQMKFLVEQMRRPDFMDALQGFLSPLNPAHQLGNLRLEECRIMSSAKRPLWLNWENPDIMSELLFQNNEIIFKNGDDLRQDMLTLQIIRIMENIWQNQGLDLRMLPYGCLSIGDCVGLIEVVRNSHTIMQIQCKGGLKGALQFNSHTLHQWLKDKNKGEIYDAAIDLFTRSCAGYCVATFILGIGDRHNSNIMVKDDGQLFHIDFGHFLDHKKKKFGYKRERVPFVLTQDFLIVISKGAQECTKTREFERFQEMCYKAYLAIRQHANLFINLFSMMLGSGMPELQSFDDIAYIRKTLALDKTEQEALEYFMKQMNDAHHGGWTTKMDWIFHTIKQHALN
Chain of PI3K-α (P27986 whole entry partner, species assumed): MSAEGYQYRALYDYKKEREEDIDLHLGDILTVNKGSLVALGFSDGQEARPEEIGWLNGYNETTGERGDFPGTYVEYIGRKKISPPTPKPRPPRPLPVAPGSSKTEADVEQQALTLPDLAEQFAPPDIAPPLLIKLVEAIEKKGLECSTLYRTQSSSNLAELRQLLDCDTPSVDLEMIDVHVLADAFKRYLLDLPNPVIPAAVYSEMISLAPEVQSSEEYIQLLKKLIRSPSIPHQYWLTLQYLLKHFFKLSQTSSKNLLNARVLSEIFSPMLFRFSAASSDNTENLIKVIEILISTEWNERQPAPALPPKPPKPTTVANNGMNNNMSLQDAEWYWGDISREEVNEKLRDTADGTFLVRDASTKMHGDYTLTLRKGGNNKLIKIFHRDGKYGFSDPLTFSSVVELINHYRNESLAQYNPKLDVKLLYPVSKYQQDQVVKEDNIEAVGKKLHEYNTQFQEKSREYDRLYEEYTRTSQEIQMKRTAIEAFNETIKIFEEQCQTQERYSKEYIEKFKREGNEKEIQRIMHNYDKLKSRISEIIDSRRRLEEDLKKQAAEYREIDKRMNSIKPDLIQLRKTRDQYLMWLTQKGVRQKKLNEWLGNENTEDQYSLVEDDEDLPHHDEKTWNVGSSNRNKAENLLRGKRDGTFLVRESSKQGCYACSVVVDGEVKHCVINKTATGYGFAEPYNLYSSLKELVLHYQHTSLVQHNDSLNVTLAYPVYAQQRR

In the case of `CN(c1ccc(C(N)=O)cc1)c1nc(-c2ccccc2)nc2c1cnn2C` [Example 34, 4-[methyl(1-methyl-6-phenyl-1H-pyrazolo[3,4-d]pyrimidin-4-yl)amino]benzamide], the IC50 (mTOR) is reported as 16000 nM, the IC50 (PI3K-α) is reported as 6700 nM and the IC50 (PI3K-γ) is reported as over 10000 nM.

Work on `CC(=O)Nc1ccc(N(C)c2nc(-c3ccccc3)nc3c2cnn3C)cc1` [Example 35, N-{4-[methyl(1-methyl-6-phenyl-1H-pyrazolo[3,4-d]pyrimidin-4-yl)amino]phenyl}acetamide] yielded an IC50 (mTOR) of 4700 nM, an IC50 (PI3K-α) of 1500 nM and an IC50 (PI3K-γ) of 7470 nM.

`COc1cccc(-c2nc(Oc3ccc4[nH]ccc4c3)c3cnn(C)c3n2)c1` [Example 38, 4-(1H-indol-5-yloxy)-6-(3-methoxyphenyl)-1-methyl-1H-pyrazolo[3,4-d]pyrimidine] gave an IC50 (mTOR) of 2500 nM, an IC50 (PI3K-α) of 298 nM and an IC50 (PI3K-γ) of 1140 nM.

In the case of `COc1ccc(-c2nc(Oc3ccc4[nH]ccc4c3)c3cnn(C)c3n2)cc1OC` [Example 39, 6-(3,4-dimethoxyphenyl)-4-(1H-indol-5-yloxy)-1-methyl-1H-pyrazolo[3,4-d]pyrimidine], the IC50 (mTOR) is reported as 2800 nM, the IC50 (PI3K-α) is reported as 160 nM and the IC50 (PI3K-γ) is reported as 118 nM.

`Cn1ncc2c(Oc3ccc4[nH]ccc4c3)nc(-c3cccnc3)nc21` [Example 41, 4-(1H-indol-5-yloxy)-1-methyl-6-pyridin-3-yl-1H-pyrazolo[3,4-d]pyrimidine] was tested, and the IC50 (mTOR) was 7200 nM, the IC50 (PI3K-α) was 215 nM and the IC50 (PI3K-γ) was 428 nM.

For `Cn1ncc2c(Oc3ccc4[nH]ccc4c3)nc(-c3cccc(C#N)c3)nc21` [Example 43, 3-[4-(1H-indol-5-yloxy)-1-methyl-1H-pyrazolo[3,4-d]pyrimidin-6-yl]benzonitrile], the IC50 (mTOR) was 8400 nM, the IC50 (PI3K-α) was 598 nM and the IC50 (PI3K-γ) was 1610 nM.

Compound `COc1cccc(-c2nc(Oc3ccc(OC)c(OC)c3)c3cnn(C)c3n2)c1` [Example 45, 4-(3,4-dimethoxyphenoxy)-6-(3-methoxyphenyl)-1-methyl-1H-pyrazolo[3,4-d]pyrimidine] has an IC50 (mTOR) of over 20000 nM, an IC50 (PI3K-α) of 653 nM and an IC50 (PI3K-γ) of 1290 nM.

For `CC(=O)Nc1ccc(Oc2nc(-c3ccc(O)cc3)nc3c2cnn3C)cc1` [Example 54, N-(4-{[6-(4-hydroxyphenyl)-1-methyl-1H-pyrazolo[3,4-d]pyrimidin-4-yl]oxy}phenyl)acetamide], the IC50 (mTOR) was 4900 nM, the IC50 (PI3K-α) was 266 nM and the IC50 (PI3K-γ) was 398 nM.

With `CC(=O)Nc1ccc(Oc2nc(-c3ccc4[nH]ccc4c3)nc3c2cnn3C)cc1` [Example 55, N-(4-{[6-(1H-indol-5-yl)-1-methyl-1H-pyrazolo[3,4-d]pyrimidin-4-yl]oxy}phenyl)acetamide] the IC50 (mTOR) was 570 nM, the IC50 (PI3K-α) was 387 nM and the IC50 (PI3K-γ) was 600 nM.

Compound `Cn1ncc2c(Oc3ccc4[nH]ccc4c3)nc(-c3ccc(-c4ccccc4)cc3)nc21` [Example 56, 6-biphenyl-4-yl-4-(1H-indol-5-yloxy)-1-methyl-1H-pyrazolo[3,4-d]pyrimidine] has an IC50 (mTOR) of 16000 nM, an IC50 (PI3K-α) of 11500 nM and an IC50 (PI3K-γ) of over 10000 nM.

Work on `COc1ccc2cc(-c3nc(Oc4ccc5[nH]ccc5c4)c4cnn(C)c4n3)ccc2c1` [Example 57, 4-(1H-indol-5-yloxy)-6-(6-methoxy-2-naphthyl)-1-methyl-1H-pyrazolo[3,4-d]pyrimidine] yielded an IC50 (mTOR) of 12000 nM, an IC50 (PI3K-α) of 3220 nM and an IC50 (PI3K-γ) of over 10000 nM.

`CC(C)c1ccc(-c2nc(Oc3ccc4[nH]ccc4c3)c3cnn(C)c3n2)cc1` [Example 58, 4-(1H-indol-5-yloxy)-6-(4-isopropylphenyl)-1-methyl-1H-pyrazolo[3,4-d]pyrimidine] gave an IC50 (mTOR) of over 20000 nM, an IC50 (PI3K-α) of 3800 nM and an IC50 (PI3K-γ) of 10600 nM.

Compound `Cn1cc(-c2nc(Oc3ccc4[nH]ccc4c3)c3cnn(C)c3n2)cn1` [Example 59, 4-(1H-indol-5-yloxy)-1-methyl-6-(1-methyl-1H-pyrazol-4-yl)-1H-pyrazolo[3,4-d]pyrimidine] has an IC50 (mTOR) of over 20000 nM, an IC50 (PI3K-α) of 2870 nM and an IC50 (PI3K-γ) of 2510 nM.

In the case of `Cn1ncc2c(Nc3ccc(C(N)=O)cc3)nc(-c3ccc(-c4ccccc4)cc3)nc21` [Example 60, 4-[(6-biphenyl-4-yl-1-methyl-1H-pyrazolo[3,4-d]pyrimidin-4-yl)amino]benzamide], the IC50 (mTOR) is reported as over 20000 nM, the IC50 (PI3K-α) is reported as 8550 nM and the IC50 (PI3K-γ) is reported as over 10000 nM.

With `CC(C)c1ccc(-c2nc(Nc3ccc(C(N)=O)cc3)c3cnn(C)c3n2)cc1` [Example 61, 4-{[6-(4-isopropylphenyl)-1-methyl-1H-pyrazolo[3,4-d]pyrimidin-4-yl]amino}benzamide] the IC50 (mTOR) was over 20000 nM, the IC50 (PI3K-α) was 2460 nM and the IC50 (PI3K-γ) was over 10000 nM.

Work on `Cn1cc(-c2nc(Nc3ccc(C(N)=O)cc3)c3cnn(C)c3n2)cn1` [Example 62, 4-{[1-methyl-6-(1-methyl-1H-pyrazol-4-yl)-1H-pyrazolo[3,4-d]pyrimidin-4-yl]amino}benzamide] yielded an IC50 (mTOR) of 4800 nM, an IC50 (PI3K-α) of 603 nM and an IC50 (PI3K-γ) of 1590 nM.

For `Cn1ncc2c(Nc3ccc(C(N)=O)cc3)nc(-c3ccoc3)nc21` [Example 65, 4-{[6-(3-furyl)-1-methyl-1H-pyrazolo[3,4-d]pyrimidin-4-yl]amino}benzamide], the IC50 (mTOR) was 1300 nM, the IC50 (PI3K-α) was 314 nM and the IC50 (PI3K-γ) was 1710 nM.

`Cn1ncc2c(Oc3ccc4[nH]ccc4c3)nc(-c3cccc(Cl)c3)nc21` [Example 66, 6-(3-chlorophenyl)-4-(1H-indol-5-yloxy)-1-methyl-1H-pyrazolo[3,4-d]pyrimidine] gave an IC50 (mTOR) of over 20000 nM, an IC50 (PI3K-α) of 762 nM and an IC50 (PI3K-γ) of 1160 nM.

In the case of `Cn1ncc2c(Oc3ccc4[nH]ccc4c3)nc(-c3cccc([N+](=O)[O-])c3)nc21` [Example 67, 4-(1H-indol-5-yloxy)-1-methyl-6-(3-nitrophenyl)-1H-pyrazolo[3,4-d]pyrimidine], the IC50 (mTOR) is reported as 16000 nM, the IC50 (PI3K-α) is reported as 660 nM and the IC50 (PI3K-γ) is reported as 1260 nM.

`Cn1ncc2c(Oc3ccc4[nH]ccc4c3)nc(-c3ccoc3)nc21` [Example 68, 6-(3-furyl)-4-(1H-indol-5-yloxy)-1-methyl-1H-pyrazolo[3,4-d]pyrimidine] was tested, and the IC50 (mTOR) was over 20000 nM, the IC50 (PI3K-α) was 1050 nM and the IC50 (PI3K-γ) was 1030 nM.

In the case of `Cn1ncc2c(Oc3ccc4[nH]ccc4c3)nc(-c3cccc(OCc4ccccc4Cl)c3)nc21` [Example 69, 6-{3-[(2-chlorobenzyl)oxy]phenyl}-4-(1H-indol-5-yloxy)-1-methyl-1H-pyrazolo[3,4-d]pyrimidine], the IC50 (mTOR) is reported as over 20000 nM, the IC50 (PI3K-α) is reported as 10800 nM and the IC50 (PI3K-γ) is reported as over 10000 nM.

`Cc1noc(C)c1-c1nc(Oc2ccc3[nH]ccc3c2)c2cnn(C)c2n1` [Example 72, 6-(3,5-dimethylisoxazol-4-yl)-4-(1H-indol-5-yloxy)-1-methyl-1H-pyrazolo[3,4-d]pyrimidine] gave an IC50 (mTOR) of over 20000 nM, an IC50 (PI3K-α) of 580 nM and an IC50 (PI3K-γ) of 1350 nM.

`COc1ccc(Oc2nc(-c3ccccc3)nc3c2cnn3C)cc1OC` [Example 73, 4-(3,4-dimethoxyphenoxy)-1-methyl-6-phenyl-1H-pyrazolo[3,4-d]pyrimidine] showed an IC50 (mTOR) of 8200 nM, an IC50 (PI3K-α) of 1760 nM and an IC50 (PI3K-γ) of over 9600 nM.

For `CC(=O)Nc1ccc(Oc2nc(-c3ccccc3)nc3c2cnn3C)cc1` [Example 74, N-{4-[(1-methyl-6-phenyl-1H-pyrazolo[3,4-d]pyrimidin-4-yl)oxy]phenyl}acetamide], the IC50 (mTOR) was 5500 nM, the IC50 (PI3K-α) was 637 nM and the IC50 (PI3K-γ) was 1340 nM.

`Cn1ncc2c(Oc3ccc(C(N)=O)cc3)nc(-c3ccccc3)nc21` [Example 75, 4-[(1-methyl-6-phenyl-1H-pyrazolo[3,4-d]pyrimidin-4-yl)oxy]benzamide] gave an IC50 (mTOR) of 9200 nM, an IC50 (PI3K-α) of 1020 nM and an IC50 (PI3K-γ) of 1720 nM.

With `Cn1ncc2c(Oc3ccc4[nH]ccc4c3)nc(-c3ccccc3)nc21` [Example 76, 4-(1H-indol-5-yloxy)-1-methyl-6-phenyl-1H-pyrazolo[3,4-d]pyrimidine] the IC50 (mTOR) was 330 nM, the IC50 (PI3K-α) was 558 nM and the IC50 (PI3K-γ) was 570 nM.

Work on `CNC(=O)Nc1ccc(-c2nc(Nc3ccc(C(N)=O)cc3)c3cnn(C)c3n2)cc1` [Example 77, 4-(1-methyl-6-(4-(3-methylureido)phenyl)-1H-pyrazolo[3,4-d]pyrimidin-4-ylamino)benzamide] yielded an IC50 (mTOR) of 1700 nM, an IC50 (PI3K-α) of 493 nM and an IC50 (PI3K-γ) of 2900 nM.

`CNC(=O)Nc1cccc(-c2nc(Nc3ccc(C(N)=O)cc3)c3cnn(C)c3n2)c1` [Example 78, 4-(1-methyl-6-(3-(3-methylureido)phenyl)-1H-pyrazolo[3,4-d]pyrimidin-4-ylamino)benzamide] was tested, and the IC50 (mTOR) was 775 nM, the IC50 (PI3K-α) was 277 nM and the IC50 (PI3K-γ) was 3600 nM.

Work on `Cn1ncc2c(Nc3ccc(C(N)=O)cc3)nc(Nc3cccc(NC(=O)Nc4cccnc4)c3)nc21` [Example 80, 4-{[1-Methyl-6-({3-[(pyridin-3-ylcarbamoyl)amino]phenyl}amino)-1H-pyrazolo[3,4-d]pyrimidin-4-yl]amino}benzamide] yielded an IC50 (mTOR) of 3450 nM, an IC50 (PI3K-α) of 529 nM and an IC50 (PI3K-γ) of 2010 nM.

`CN1CCN(C(=O)c2ccc(NC(=O)Nc3ccc(Nc4nc(Nc5ccc(C(N)=O)cc5)c5cnn(C)c5n4)cc3)cc2)CC1` [Example 81, 4-{[1-Methyl-6-({4-[({4-[(4-methylpiperazin-1-yl)carbonyl]phenyl}carbamoyl)amino]phenyl}amino)-1H-pyrazolo[3,4-d]pyrimidin-4-yl]amino}benzamide] gave an IC50 (mTOR) of 17 nM, an IC50 (PI3K-α) of 0.4 nM and an IC50 (PI3K-γ) of 6 nM.

Reference: US20100015141A1, “4-PHENOXY-6-ARYL-1H-PYRAZOLO[3,4-D]PYRIMIDINE AND N-ARYL-6-ARYL-1H-PYRAZOLO[3,4-D]PYRIMIDIN-4-AMINE COMPOUNDS, THEIR USE AS MTOR KINASE AND PI3 KINASE INHIBITORS, AND THEIR SYNTHESES” (Wyeth, priority 2008, published 2010)
